Results on one compound are retold here after PMC10121968, “Fosgonimeton, a Novel Positive Modulator of the HGF/MET System, Promotes Neurotrophic and Procognitive Effects in Models of Dementia” (Neurotherapeutics, 2022).

SMILES strings stand for the structures. Non-standard residues stand in square brackets, D forms with d. Residues, ends and D or L forms follow the SMILES beside them. *: point of attachment. Hexanoyl = CCCCCC(=O)*; Ahx = NCCCCCC(=O)O

Series [1] concerns AKT (Ser473). Description: Phospho-AKT HTRF assay in HEK293 cells. The note with it: HEK293, subthreshold HGF 10 ng/mL + fosgo-AM 0.1 µM, vs HGF alone. It counts as cell-based, human. An excerpt: To determine phosphoactivation status of the intracellular signaling molecules ERK (Thr202/Tyr204) or AKT (Ser473), we used homogenous time-resolved fluorescence (HTRF) kits to assess phosphorylation status based on the energy transfer between donor and acceptor phospho-ERK (pERK) or phospho-AKT (pAKT) antibodies. HTRF kit processing for pERK (Phospho-ERK [Thr202/Tyr204] cellular Advanced kit, #64AERPEG, Cisbio, Codolet, France) and pAKT (Phospho-AKT [Ser473] cellular kit, #64AKSPEG, Cisbio, Codolet, France) were carried out per manufacturer instructions. In brief, HEK293 cells were grown at 37 °C, 5% CO2 in DMEM + 10% FBS until approximately 80% confluent. Cells were seeded in polystyrene-treated 96-well cell culture plates at approximately 50,000 cells/well and cultured overnight in 50 µL serum-free growth media. […] Fluorescence emission at 2 different wavelengths (665 nm and 620 nm) were measured on an Envision plate reader (PerkinElmer, Waltham, Massachusetts), and the HTRF ratio of the acceptor and donor emission signals for each well was calculated as follows: HTRF ratio = (665 nm/620 nm) × 10,000. […] Data were assessed for normality (Shapiro–Wilk) and homoscedasticity (Brown-Forsythe). Statistical significance was determined by one-way analysis of variance (ANOVA) with Tukey’s multiple comparison post-test. […]
In general terms: In TR-FRET formats the signal depends on donor and acceptor labels being close together.

Series [2] can be described thus: Fosgo-AM solubility (turbidity in PBS). It counts as physicochemical. To be noted: 1% DMSO, 37 °C, 2 h. As to the method: A fosgo-AM dilution series was produced in DMSO. Compound stocks were added in triplicate to a 96-well plate containing PBS, resulting in 1% DMSO concentration, and were incubated at 37 °C for 2 h. Turbidity in the sample wells was determined by absorbance at 620 nm.

Series [3] deals with IL-6. Kind of series: IL-6 release in LPS-challenged THP-1 macrophages (HTRF). The note with it: 1 µM, 20 min pretreatment, LPS 50 ng/mL 24 h, vs LPS + vehicle. It is filed as cell-based, human. As to the method: To determine the effect of fosgo-AM on LPS-induced cytokine release, we sought to determine the levels of interleukin-1β (IL-1β), interleukin-6 (IL-6), and tumor necrosis factor-α (TNF-α) in LPS-challenged THP-1–differentiated macrophages in the presence and absence of fosgo-AM. THP-1 monocytes were grown at 37 °C, 5% CO2 in Roswell Park Memorial Institute (RPMI) medium + 10% FBS until approximately 80% confluent. Cells were seeded in polystyrene-treated 96-well cell culture plates at approximately 50,000 cells/well in 100-µL complete media. 100 µL Phorbol myristate acetate was then added to each well for a final concentration of 100 ng/mL. The plate was then incubated for 3 days at 37 °C, 5% CO2 to prime the monocytes into macrophages. […] For cytokine quantification, cell culture supernatant was assayed by HTRF kits to assess levels of IL-1β (Human IL-1β kit, #62HIL1BPEG, Cisbio, Codolet, France) and IL-6 (Human IL-6 kit, 62HIL06PET, Cisbio, Codolet, France), and by ELISA (Human TNF-α ELISA kit, KHC3011, ThermoFisher, Waltham, Massachusetts) to determine the levels of TNF-α. […] Fluorescence emission at 2 different wavelengths (665 nm and 620 nm) were measured on an Envision plate reader (PerkinElmer, Waltham, Massachusetts), and HTRF ratio of the acceptor and donor emission signals for each well was calculated as follows: HTRF ratio = (665 nm/620 nm) × 10,000. […]

The nature of series [4]: Oral bioavailability. To be noted: in vivo.

With `CCCCCC(=O)N[C@@H](Cc1ccc(O)cc1)C(=O)N[C@H](C(=O)NCCCCCC(N)=O)[C@@H](C)CC` [fosgo-AM] (Hexanoyl-Tyr-Ile-[Ahx]-NH2), in series [1], the pAKT levels entry is recorded as “significant increase”. In series [2], the maximum aqueous solubility entry was “less than 50 μg/mL”. Also, the IL-6 release entry in series [3] is recorded as “significant decrease”. In addition, the oral bioavailability result in series [4] was “poor oral bioavailability”.
